From US9085568B2, “Mineralocorticoid receptor antagonists” (Merck Sharp & Dohme Corp., priority 2011, dated 2015)

Target: T1, full-length human Mineralocorticoid Receptor (MR) (Homo sapiens, UniProt P08235)
T1 construct: host or cells: PathHunter CHO-K1 cells
T1 sequence (P08235 1-984): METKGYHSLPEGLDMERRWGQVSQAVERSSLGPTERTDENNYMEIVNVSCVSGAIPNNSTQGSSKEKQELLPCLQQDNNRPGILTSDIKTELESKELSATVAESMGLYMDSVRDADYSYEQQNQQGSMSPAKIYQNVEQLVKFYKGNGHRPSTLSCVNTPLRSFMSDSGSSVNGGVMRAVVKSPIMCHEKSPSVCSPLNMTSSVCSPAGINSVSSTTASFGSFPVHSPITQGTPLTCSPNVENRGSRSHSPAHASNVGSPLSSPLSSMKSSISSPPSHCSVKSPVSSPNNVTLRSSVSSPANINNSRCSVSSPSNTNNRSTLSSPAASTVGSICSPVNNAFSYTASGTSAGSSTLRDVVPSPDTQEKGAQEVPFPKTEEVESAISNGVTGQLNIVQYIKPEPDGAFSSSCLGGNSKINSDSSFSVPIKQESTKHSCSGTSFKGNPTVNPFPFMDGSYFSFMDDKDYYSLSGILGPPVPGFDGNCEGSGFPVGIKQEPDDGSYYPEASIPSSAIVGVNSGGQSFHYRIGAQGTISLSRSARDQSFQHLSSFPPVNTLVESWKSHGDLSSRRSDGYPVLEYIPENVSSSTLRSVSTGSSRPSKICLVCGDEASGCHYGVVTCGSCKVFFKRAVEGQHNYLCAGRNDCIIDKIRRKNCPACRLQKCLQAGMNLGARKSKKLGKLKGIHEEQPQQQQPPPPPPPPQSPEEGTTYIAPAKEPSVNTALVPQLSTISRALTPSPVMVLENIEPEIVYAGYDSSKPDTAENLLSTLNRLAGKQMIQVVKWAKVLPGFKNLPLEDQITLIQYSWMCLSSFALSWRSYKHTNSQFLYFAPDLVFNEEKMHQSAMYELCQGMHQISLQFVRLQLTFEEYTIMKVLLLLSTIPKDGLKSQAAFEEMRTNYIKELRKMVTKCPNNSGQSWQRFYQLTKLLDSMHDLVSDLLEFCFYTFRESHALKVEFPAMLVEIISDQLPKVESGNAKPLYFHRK
Assay: human MR NH Pro assay (PathHunter protein:protein interaction, MR antagonism)
Format: cell-based
Details: PathHunter CHO-K1 cells overexpressing human MR; aldosterone (0.3 nM), 6 hours at 37° C.; antagonism of MR binding to coactivator peptide; read-out: IC50 Rating
Experimental: The activity of the compounds of the present invention regarding mineralocorticoid receptor antagonism was evaluated using the following assay.
The human MR NH Pro assay is a commercially available PathHunter™ Protein: Protein interaction assay (DiscoveRx; http://www.discoverx.com/nhrs/prod-nhrs.php) that measures the ability of compounds to antagonize full-length human Mineralocorticoid Receptor (MR) binding to a coactivator peptide.
3× PathHunter Detection Reagents (Cat #93-0001) (need ˜6 ml/plate). […] Control Agonist: Aldosterone: Sigma cat #A9477 • Prepare stock solution—10 μM in DMSO kept at −20° C. • for assay, dilute in assay media to 1.8 or 6 nM (6× of final concentration=about 0.3 nM to about 1.0 nM) • 5. Cell line: PathHunter CHO-K1 MR cells Cat #93-0456C2, Lot No: 09B0913, from operation liquid nitrogen stock. • 6. […] Methods: • Assay Set Up and Calculations: • 1. Cells were grown in F12+FBS+Hygromycin+pen/strep+Genetin • 2. Cells were collected with 0.05% trypsin and the cell suspension was spun and resuspended in a volume of F12+1.5% CD-FBS and counted. • 3. The cells were resuspended to 4×10^5 cells/mL. • 4. Cells were (25 μL/well) added to the wells of a 384 well plate. • 5. The plate was then incubated at 37° C. over night in a humidified incubator with 5% CO2. • 6. Test compounds were titrated starting at 4.4 mM, 10-point titration in 1:3 dilution. • 7.
5 μL of assay media was added to all wells in column 23 and 24. • 5. Plates were incubated 6 hrs at 37° C., 5% CO2. • 6. 15 μL 3× DiscoveRx detection reagent was added to each well. • 7. Plates were incubated for 1 hour at room temperature (plates stored in the dark). • 8.

| IC50 [nM] | Compound |
| --- | --- |
| 500 to 2000 | COc1cc(OC)cc(-c2nnc([C@@]3(Cc4ccccc4)NC(=O)N([C@H](C)c4ccccc4)C3=O)o2)c1 (single isomer, unassigned) [Compound 22] |
| 500 to 2000 | COc1cc(OC)cc(-c2n[nH]c(C3(Cc4ccccc4)OC(=O)N([C@H](C)c4ccc(F)cc4)C3=O)n2)c1 (stereo partly drawn) [Compound 1, 5-Benzyl-5-[5-(3,5-dimethoxyphenyl)-4H-1,2,4-triazol-3-yl]-3-[(1R)-1-(4-fluorophenyl)ethyl]-1,3-oxazolidine-2,4-dione] |
| < 100 | COc1cc(Cc2nnc([C@@]3(Cc4ccccc4)OC(=O)N([C@H](C)c4ccccc4)C3=O)o2)cc(OC)c1 [Compound 2, (5R)-5-Benzyl-5-[5-(3,5-dimethoxybenzyl)-1,3,4-oxadiazol-2-yl]-3-[(1R)-1-phenylethyl]-1,3-oxazolidine-2,4-dione] |
| 100 to 500 | C[C@H](c1ccccc1)N1C(=O)O[C@](Cc2ccccc2)(c2nnc(C3(c4cc(F)cc(F)c4)CC3)o2)C1=O [Compound 9, (5R)-5-Benzyl-5-{5-[1-(3,5-difluorophenyl)cyclopropyl]-1,3,4-oxadiazol-2-yl}-3-[(1R)-1-phenylethyl]-1,3-oxazolidine-2,4-dione] |
| 100 to 500 | COc1cc(N)cc(-c2nnc([C@@]3(Cc4ccccc4)OC(=O)N([C@H](C)c4ccccc4)C3=O)o2)c1 [Compound 10, (5R)-5-[5-(3-Amino-5-methoxyphenyl)-1,3,4-oxadiazol-2-yl]-5-benzyl-3-[(1R)-1-phenylethyl]-1,3-oxazolidine-2,4-dione] |
| 500 to 2000 | C[C@H](c1ccccc1)N1C(=O)O[C@](Cc2ccccc2)(c2nnc(CC(F)(F)F)o2)C1=O [Compound 11, (5R)-5-Benzyl-3-[(1R)-1-phenylethyl]-5-[5-(2,2,2-trifluoroethyl)-1,3,4-oxadiazol-2-yl]-1,3-oxazolidine-2,4-dione] |
| 500 to 2000 | C[C@H](c1ccccc1)N1C(=O)O[C@](Cc2ccccc2)(c2nnc(C3(C(F)(F)F)CC3)o2)C1=O [Compound 12, (5R)-5-Benzyl-3-[(1R)-1-phenylethyl]-5-{5-[1-(trifluoromethyl)cyclopropyl]-1,3,4-oxadiazol-2-yl}-1,3-oxazolidine-2,4-dione] |
| 100 to 500 | C[C@H](c1ccccc1)N1C(=O)O[C@](Cc2ccccc2)(c2nnc(C3(c4ccncc4)CC3)o2)C1=O [Compound 14, (5R)-5-Benzyl-3-[(1R)-1-phenylethyl]-5-[5-(1-pyridin-4-ylcyclopropyl)-1,3,4-oxadiazol-2-yl]-1,3-oxazolidine-2,4-dione] |
